Experimental data published in patent US11234960B2, “Compositions and methods for improving mitochondrial function and treating neurodegenerative diseases and cognitive disorders” (Amazentis SA, priority 2010, dated 2022).

How the values were obtained:
PC-12 cells = assay: Neurite outgrowth in NGF-differentiated PC-12 cells; format: cell-based, rat; conditions: 0.5 μM; for percent of cells showing significant outgrowth (>20 μm), increase vs differentiated cells: 72 h (FIG. 8); for number of processes, increase: 72 h, differentiated PC-12 cells (FIG. 9)
Description: The ellagitannins and their metabolites tested in the assays were synthesized or purchased from suppliers which included Funakoshi, Sigma, and Chemos. Stock solutions were aliquoted and stored at −20° C.
PC-12 cells (ATCC CRL-1721) were cultured at 37° C., 5% CO2 in poly L-lysine-coated culture flasks in complete culture medium (RPMI 1640+10% heat-inactivated horse serum+5% fetal bovine serum).
Cell differentiation was performed in culture flasks 24 h after plating, in complete medium supplemented with 100 ng/mL NGF (2.5 S NGF, Invitrogen). The NGF-supplemented medium was renewed every third day, and differentiation was induced over an 8-day period.
All compounds to be tested were prepared just before the experiment as a 50 mM stock solution in dimethylsulfoxide (DMSO). The final DMSO concentration was 0.1% in the medium of all experimental groups.
For neurite outgrowth measurements, differentiated cells were washed with phosphate-buffered saline (PBS), collected after detachment and replated at a density of 5,000 cells/well (biocoat imaging 96 well plate) in complete medium supplemented with 100 ng/mL NGF, with or without 10 μM SP600125 (negative control), 1 mM dbcAMP (positive control), or tested compound at 5×10^−7 M. In the undifferentiated control group, no NGF was added after replating.
After 72 h in culture, PC-12 cells were washed with PBS and fixed in 1% paraformaldehyde solution for 20 minutes. After 3 washes with PBS, immunofluorescence labeling was performed with Texas Red Maleimide probe, which reacts with thiol groups of cysteine residues of proteins, permitting the visualization of the entire cell morphology, including neurites.
Immunofluorescence analysis was performed in automated confocal microscopy. Images were acquired with a BD pathway 855 system, under X20 objective with 8×8 field montage. Neurite outgrowth was then measured from acquired images with the neurite module of Metamorph® software. Total and mean outgrowth, total and mean number of processes per cell, and total and percentage of cells with extensive outgrowth (defined as outgrowth longer than 20 μm) were analyzed.

citrate synthase = assay: Citrate synthase activity in C2C12 myotubes; format: cell-based; conditions: 48 hr, punicalagin 1 or 10 μM, ellagic acid or urolithin 1, 10 or 50 μM (FIG. 4)
Description: The enzyme citrate synthase catalyzes the reaction between acetyl coenzyme A (acetyl CoA) and oxaloacetic acid to form citric acid. The acetyl CoA contributes 2 carbons to the 4 carbons of oxaloacetate, resulting in citrate with 6 carbons. The hydrolysis of the thioester of acetyl CoA results in the formation of CoA with a thiol group (CoA-SH). The activity of citrate synthase is measured via the reaction between the thiol of CoA-SH with the DTNB in the mixture to form 5-thio-2-nitrobenzoic acid (TNB). This yellow product (TNB) is observed spectrophotometrically by measuring absorbance at 412 nm (Citrate Synthase Assay Kit, Cat Number CS0720, Sigma Aldrich).
C2C12 myoblasts were differentiated into myotubes by serum deprivation for 4 days (Canto et al. (2009) Nature. 458:1056-60). Myotubes were incubated for 48 hr with punicalagin at a final concentration of 1 or 10 μM or with ellagic acid or urolithin at a final concentration of 1, 10 or 50 μM (all dissolved in DMSO, final concentration 0.1%). DMSO was used as a control (final concentration 0.1%). At the end of the treatment, cells were washed 3 times with PBS and assayed for citrate synthase activity according to manufacturer's instructions (Citrate Synthase Assay Kit, Cat Number CS0720, Sigma Aldrich).

HFD-fed C57BL6/J mice = assay: Oral glucose tolerance test in HFD-fed mice; format: in vivo; conditions: 10 weeks of treatment (FIG. 24)
Description: (§1) Mice in different treatment groups were administered (i) urolithin A mixed with food (food admix) to reach a dosing of 55 mg/kg body weight/day (mkd); (ii) ellagic acid mixed with food (food admix) to reach a dosing of 75 mkd; (iii) punicalagin (gavage) to reach a dosing of 90 mkd; or (iv) pomegranate extract (PE) (gavage) to reach a dosing of 140 mkd of total polyphenols. A typical pomegranate extract used in these experiments had the following composition: polyphenols, 140 mkd; punicalagin, 13.1 mkd; and ellagic acid, 13.2 mkd. For animals treated by gavage, gavage was performed daily (7 days/week) between 8:00 and 10:00 a.m.; compounds were mixed with saline solution (0.9% NaCl) and provided at a final volume of 5 mL/kg of body weight. Mice in high-fat control groups were fed with the same diet as the experimental animals. Mice in corresponding different control groups were administered either high-fat diet alone or high-fat diet plus daily gavage with vehicle (saline). Another control group of mice were fed standard chow diet alone.
Male C57BL6/J mice were grouped and treated as described in Example 7. In addition, glucose tolerance test (GTT) was performed for HFD-fed mice which developed glucose intolerance. Glucose tolerance test was monitored 10 weeks after the initiation of the treatment by Oral Glucose Tolerance Test (oGTT). Animals were fasted for 12 h (from 8 pm to 8 am) before oGTT. The day of the oGTT, a small drop of blood (<2 μL) was collected from the lateral tail vein and glycemia was monitored using a glucometer (AccuCheck Aviva, Roche Diagnosis). Each animal then received, at time 0, an oral dose of D-glucose at a dosing of 2 g/kg body weight. Glycemia was then monitored at times 15, 30, 45, 60, 90, 120, and 150 min after oral glucose load.

[1] = tested on: C57BL6/J mice fed standard chow diet; assay: Indirect calorimetry (CLAMS) in standard chow diet fed mice; format: in vivo; conditions: for respiratory exchange ratio (RER): chow diet fed mice (FIGS. 21A, 21B); for energy expenditure (oxygen consumption, VO2): standard chow-fed mice, 2 weeks of treatment (FIGS. 19A, 19B)
Description: as §1
Male C57BL6/J mice were grouped and treated as described in Example 7. In addition, however, basal energy expenditure of mice was measured by indirect calorimetry oxygen consumption, carbon dioxide production, and respiratory exchange ratio), 8 weeks after the initiation of treatment for the HFD-fed mice and 2 weeks after the initiation of treatment for standard show diet-fed mice, using the Comprehensive Laboratory Animal Monitoring System (CLAMS; Columbus Instruments, Columbus, Ohio, USA). Animals were first acclimatized for 22 h to CLAMS cages (room temperature 22° C.±1° C.) starting between 11 to 12 am. Then measurement was performed for at least 20 h in the same condition. Measurement included an entire dark cycle. Parameters measured during CLAMS were the following: (i) Oxygen consumption (VO2 in mL/kg/h): VO2 is directly correlated to energy expenditure; (ii) Carbon dioxide production (VCO2 in mL/kg/h); and (iii) Respiratory Exchange Ratio (RER): VCO2/VO2: RER is an indicator of the use of energy substrate. In a steady state, RER is equivalent to the Respiratory Quotient (RQ). Pure carbohydrate use gives RER=1, whereas pure fat burning yields an RER=0.7. A mixed diet gives a RER=0.85.
As stated above, in addition to oxygen consumption, indirect calorimetry also monitors carbon dioxide production. The ratio between carbon dioxide production (VCO2) and oxygen consumption (VO2) is called Respiratory Exchange Ratio (RER). RER is an excellent indicator of the use of energy substrates. In a steady state, RER is equivalent to the Respiratory Quotient (RQ). […]

## O=c1oc2cc(O)ccc2c2ccc(O)cc12 [urolithin A, 3,8-Dihydroxydibenzo-α-pyrone]
PC-12 cells
  percent of cells showing significant outgrowth (>20 μm), increase vs differentiated cells: 26%
  number of processes, increase: 15.7%
Citrate synthase
  citrate synthase activity: increase citrate synthase activity in a dose-dependent manner
HFD-fed C57BL6/J mice
  glucose tolerance (oGTT, glycemia after 2 g/kg D-glucose): improved glucose tolerance
[1]
  respiratory exchange ratio (RER): significantly decreased RER
  energy expenditure (oxygen consumption, VO2): increased energy expenditure

## O=c1oc2c(O)c(O)cc3c(=O)oc4c(O)c(O)cc1c4c23 [ellagic acid]
Citrate synthase
  citrate synthase activity: increase citrate synthase activity in a dose-dependent manner
HFD-fed C57BL6/J mice
  glucose tolerance (oGTT, glycemia after 2 g/kg D-glucose): improved glucose tolerance
[1]
  respiratory exchange ratio (RER): significantly decreased RER
  energy expenditure (oxygen consumption, VO2): increased energy expenditure

## O=C1O[C@H]2[C@@H]3OC(=O)c4cc(O)c(O)c(O)c4-c4c(O)c(O)c5oc(=O)c6c(c(O)c(O)c7oc(=O)c4c5c76)-c4c(cc(O)c(O)c4O)C(=O)OC[C@H]3OC(O)[C@@H]2OC(=O)c2cc(O)c(O)c(O)c2-c2c1cc(O)c(O)c2O (mixture of isomers) [punicalagin, 2,3 hexahydroxydiphenoyl-4,6-gallagylglucose]
PC-12 cells
  percent of cells showing significant outgrowth (>20 μm), increase vs differentiated cells: > 26%
  number of processes, increase: 26.3%
Citrate synthase
  citrate synthase activity: increase citrate synthase activity in a dose-dependent manner
HFD-fed C57BL6/J mice
  glucose tolerance (oGTT, glycemia after 2 g/kg D-glucose): improved glucose tolerance
